Data on twelve substances can be found in paper PMC8291126, “Functional Characterization of Ecdysis Triggering Hormone Receptors (AgETHR-A and AgETHR-B) in the African Malaria Mosquito, Anopheles gambiae” (Frontiers in Physiology, 2021).

The subject of one test is AgETHR-A. Kind of test: Calcium mobilization assay (aequorin luminescence) with heterologously expressed AgETHR-A. It is filed as cell-based, Anopheles gambiae. The following applies: for agonistic activity normalized by the activity of AgETH1 / response of AgETHR-A (in words) / concentration of maximum response (at the level over) / lowest activating concentration (receptor not activated lower than) / response/sensitivity of AgETHR-A to own ETHs (in words): AgETHR-A; for agonistic activity normalized by the activity of AgETH1: CHO cells, normalized to AgETH1; for response of AgETHR-A (in words): 0.1 and 1 μm; for EC50: AgETHR-A in CHO cells, calcium mobilization, luminescence integrated 20 s, at least three replicates; for concentration of maximum response (at the level over) / lowest activating concentration (receptor not activated lower than) / response/sensitivity of AgETHR-A to own ETHs (in words): dose-response. An excerpt: (§1) We tested different synthetic insect neuropeptides with PRXamide, including four groups: ETH, pyrokinin1/DH, pyrokinin2/PBAN, and CAPA. The following synthetic peptides were utilized to investigate selectivity and sensitivity of each AgETHR-A and AgETHR-B; AgETH1 (SESPGFIKLSKSVPRIa, NEOBiolab, United States), AgETH2 (GDLENFFLKQSKSVPRIa, GenScript United States Inc.), TcETH1 (ENYVLKAAKNVPRIa), TcETH2 (FFMKASKSVPRIa), TcPK1-1 (PGANSGGMWFGPRLa, GenScript United States Inc.), TcPK1-2 ([…]a), TcCAPA-1([…]a, PepMicCo. Ltd., Suzhou, China), TcCAPA-2 (RIGKMVSFPRIa); MsPBAN (TRTRYFSPRLa), Pyrokinin2-1 (HVVNFTPRLa, Biomatik, United States), DmETH1 (DDSSPGFFLKITKNVPRLa) and DmETH2 (GENFAIKNLKTIPRIa).
(§2) The functional analysis of the AgETH receptors was performed based on the previous description with modifications ([Park et al., 2003]; [Kim et al., 2014]; [Jiang et al., 2016]). The expression vector pcDNA 3.1 (+) (Invitrogen, Carlsbad, CA, United States), including the open reading frame (ORF) for each AgETHR-A and AgETHR-B, was transiently transfected into the CHO cells with a codon-optimized human apoaequorin-containing plasmid ([Vernon and Printen, 2002]) by using TransIT®-2020 (Mirus, Madison, WI, United States). […] The Kozak sequence for the mammalian Kozak consensus sequence ‘GCCACC’ at the 5' ends of each ORF for each AgETHR-A and AgETHR-B was […], allowing for successful functional expression. After approximately 24–28 h, transfected cells were harvested and prepared for the calcium mobilization assay by incubating in assay media DMEM/F12, including coelenterazine h (final concentration 5 μm; AAT Bioquest, Sunnyvale, CA, United States). Different concentrations of synthetic neuropeptides, including AgETH1, AgETH2, and ETH-related neuropeptides (PRXamides), were prepared in a 96-well plate, upon which the transfected cells (~15,000 cells in 50 μl) were applied. The value of luminescence, the indicator or calcium mobilization, was integrated over time for 20 s and normalized to the treatment of either 0.1 or 1 μm of each AgETH1 and AgETH2 positive control response and negative control background values.
For orientation: Calcium assays in cells follow changes in intracellular calcium, usually with a dye or a luminescent sensor.

The test system of the next test is AgETHR-B. Kind of test: Calcium mobilization assay (aequorin luminescence) with heterologously expressed AgETHR-B. Format: cell-based, Anopheles gambiae. The following applies: for agonistic activity normalized by the activity of AgETH2 / response of AgETHR-B relative to other ETHs (in words) / concentration of maximum response (at the level over) / lowest activating concentration (receptor not activated lower than) / response/sensitivity of AgETHR-B to own ETHs (in words): AgETHR-B; for agonistic activity normalized by the activity of AgETH2: CHO cells, normalized to AgETH2; for response of AgETHR-B relative to other ETHs (in words): 0.1 μm; for EC50: AgETHR-B in CHO cells, calcium mobilization, luminescence integrated 20 s, at least three replicates; for higher sensitivity of AgETHR-B than AgETHR-A: AgETHR-B vs. AgETHR-A, calcium mobilization assay; for concentration of maximum response (at the level over) / lowest activating concentration (receptor not activated lower than) / response/sensitivity of AgETHR-B to own ETHs (in words): dose-response.
Excerpt: as §1, §2

A further test deals with TcETHR-B. The following applies: out of 70 peptides, ref Jiang et al., 2015; cited from earlier work.

Regarding “DDSSPGFFLKITKNVPRLa [DmETH1, D. melanogaster ETH]”, the entries for the “agonistic activity normalized by the activity of AgETH1” value in the test with AgETHR-A (0.1 μM peptide) and in the test on AgETHR-A (1 μM peptide) were 138% and 102%, respectively. In addition, the “response of AgETHR-A (in words)” value in the test on AgETHR-A was “responded”. Also, the “agonistic activity normalized by the activity of AgETH2” value in the test on AgETHR-B (0.1 μM peptide) was 105%; in the test on AgETHR-B (1 μM peptide), 98%.
Take “ENYVLKAAKNVPRIa [TcETH1, T. castaneum ETH]”: the results for the “agonistic activity normalized by the activity of AgETH1” value in the test with AgETHR-A (0.1 μM peptide) and with AgETHR-A (1 μM peptide) were -11% and 32%, respectively. For the same substance, the “response of AgETHR-A (in words)” value in the test on AgETHR-A was “small or no response”. Also, the “agonistic activity normalized by the activity of AgETH2” value came out at 81% with AgETHR-B (0.1 μM peptide) and 104% in the test with AgETHR-B (1 μM peptide). In addition, the “response of AgETHR-B relative to other ETHs (in words)” value in the test on AgETHR-B is “relatively lower responses”. Also, the “agonist activity (in words)” value with TcETHR-B is listed as “agonist activity”.
Consider “EPKEPKRNKLASVYALTPSLRVa [TcCAPA-1, synthetic insect neuropeptide, CAPA (PepMicCo)]”, for which the entries for the “agonistic activity normalized by the activity of AgETH1” value in the test on AgETHR-A (0.1 μM peptide) and with AgETHR-A (1 μM peptide) were -22% and -4%, respectively. The “agonistic activity normalized by the activity of AgETH2” value is recorded as 0% in the test with AgETHR-B (0.1 μM peptide) and -2% in the test with AgETHR-B (1 μM peptide).
On to “FFMKASKSVPRIa [TcETH2, T. castaneum ETH]”, for which the “agonistic activity normalized by the activity of AgETH1” value with AgETHR-A (0.1 μM peptide) is on record as 57%; with AgETHR-A (1 μM peptide), 86%. Besides, the “response of AgETHR-A (in words)” value with AgETHR-A is “responded”. The “agonistic activity normalized by the activity of AgETH2” value in the test with AgETHR-B (0.1 μM peptide) was 109%; with AgETHR-B (1 μM peptide), 107%. Also, the “agonist activity (in words)” value in the test with TcETHR-B was “agonist activity”.
In the case of “GDLENFFLKQSKSVPRIa [AgETH2, Anopheles gambiae ecdysis triggering hormone 2, synthetic (GenScript)]”, the EC50 came to 703 nM in the test on AgETHR-A and 2.2 nM in the test with AgETHR-B. Moreover, the results for the “agonistic activity normalized by the activity of AgETH1” value in the test on AgETHR-A (0.1 μM peptide) and in the test on AgETHR-A (1 μM peptide) were 24% and 69%, respectively. The “concentration of maximum response (at the level over)” value (“concentration … (at the level over)” below) in the test on AgETHR-A is “over 100 um”; in the test with AgETHR-B, “over 100 nm”. For the same substance, the figures for the “lowest activating concentration (receptor not activated lower than)” value in the test on AgETHR-A and with AgETHR-B were at least 10 nm and at least 0.03 nm, respectively. For the same substance, the results for the “response/sensitivity of AgETHR-A to own ETHs (in words)” value with AgETHR-A and with AgETHR-A (listed as AgETH-2) were “dose-dependent responses” and “sensitive”, respectively. In the test with AgETHR-B, the “higher sensitivity of AgETHR-B than AgETHR-A” value came to 320 times. Further, the “agonistic activity normalized by the activity of AgETH2” value in the test on AgETHR-B (0.1 μM peptide) and in the test with AgETHR-B (1 μM peptide) was 100% in each case. Further, the results for the “response/sensitivity of AgETHR-B to own ETHs (in words)” value (shortened to “response/sensitivity of AgETHR-B”) in the test with AgETHR-B and in the test on AgETHR-B (listed as AgETH-2) were “dose-dependent responses” and “sensitive”, respectively.
Take “GENFAIKNLKTIPRIa [DmETH2, D. melanogaster ETH]”: the “agonistic activity normalized by the activity of AgETH1” value in the test with AgETHR-A (0.1 μM peptide) was -14%; in the test on AgETHR-A (1 μM peptide), 2%. For the same substance, in the test with AgETHR-A, the “response of AgETHR-A (in words)” value is given as “small or no response”. Besides, the figures for the “agonistic activity normalized by the activity of AgETH2” value with AgETHR-B (0.1 μM peptide) and with AgETHR-B (1 μM peptide) were 83% and 102%, respectively. Further, the “response of AgETHR-B relative to other ETHs (in words)” value in the test on AgETHR-B is “relatively lower responses”.
As for “HVVNFTPRLa [Pyrokinin2-1, synthetic insect neuropeptide with PRXamide (Biomatik)]”, the “agonistic activity normalized by the activity of AgETH1” value was -21% with AgETHR-A (0.1 μM peptide) and -4% with AgETHR-A (1 μM peptide). Besides, the “agonistic activity normalized by the activity of AgETH2” value was 1% in the test with AgETHR-B (0.1 μM peptide) and -1% with AgETHR-B (1 μM peptide).
On to “PGANSGGMWFGPRLa [TcPK-1-1, synthetic insect neuropeptide with PRXamide (GenScript)]”, for which the entries for the “agonistic activity normalized by the activity of AgETH1” value in the test with AgETHR-A (0.1 μM peptide) and in the test with AgETHR-A (1 μM peptide) were -18% and -2%, respectively. Further, the “agonistic activity normalized by the activity of AgETH2” value in the test with AgETHR-B (0.1 μM peptide) is 1%; with AgETHR-B (1 μM peptide), -3%.
For the substance “RIGKMVSFPRIa [TcCAPA-2, synthetic insect neuropeptide, CAPA]”, the entries for the “agonistic activity normalized by the activity of AgETH1” value in the test with AgETHR-A (0.1 μM peptide) and in the test with AgETHR-A (1 μM peptide) were -24% and -4%, respectively. In addition, the “agonistic activity normalized by the activity of AgETH2” value in the test with AgETHR-B (0.1 μM peptide) was determined as 0%; with AgETHR-B (1 μM peptide), 2%.
Turning to “SESPGFIKLSKSVPRIa [AgETH1, Anopheles gambiae ecdysis triggering hormone 1, synthetic (NEOBiolab)]”, in the test with AgETHR-A, the EC50 is 127 nM, the “concentration … (at the level over)” value is “over 10 um”, the “lowest activating concentration (receptor not activated lower than)” value is reported as at least 3 nm and the “response/sensitivity of AgETHR-A to own ETHs (in words)” value is “dose-dependent responses”. Further, the “agonistic activity normalized by the activity of AgETH1” value in the test with AgETHR-A (0.1 μM peptide) is given as 100%. Besides, the “agonistic activity normalized by the activity of AgETH1” value in the test on AgETHR-A (1 μM peptide) was determined as 100%. Besides, the “response/sensitivity of AgETHR-A to own ETHs (in words)” value in the test on AgETHR-A (listed as AgETH-1) is listed as “sensitive”. Further, in the test with AgETHR-B, the EC50 amounted to 4.5 nM, the “higher sensitivity of AgETHR-B than AgETHR-A” value is reported as 28 times, the “concentration … (at the level over)” value is listed as “over 100 nm” and the “lowest activating concentration (receptor not activated lower than)” value is at least 0.1 nm. Also, in the test on AgETHR-B, the “response/sensitivity of AgETHR-B” value is on record as “dose-dependent responses”. Moreover, the “agonistic activity normalized by the activity of AgETH2” value in the test with AgETHR-B (0.1 μM peptide) is on record as 97%. Also, in the test with AgETHR-B (1 μM peptide), the “agonistic activity normalized by the activity of AgETH2” value turned out to be 98%. In addition, the “response/sensitivity of AgETHR-B” value with AgETHR-B (listed as AgETH-1) is “sensitive”.
“TPHESSVPNERNDDSKETYFWFGPRLa [TcPK-1-2, synthetic insect neuropeptide with PRXamide]”: the “agonistic activity normalized by the activity of AgETH1” value is listed as -13% with AgETHR-A (0.1 μM peptide) and -3% with AgETHR-A (1 μM peptide). The “agonistic activity normalized by the activity of AgETH2” value is 1% in the test with AgETHR-B (0.1 μM peptide) and -2% in the test on AgETHR-B (1 μM peptide).
Consider “TRTRYFSPRLa [MsPBAN, synthetic insect neuropeptide with PRXamide]”, for which the “agonistic activity normalized by the activity of AgETH1” value with AgETHR-A (0.1 μM peptide) is -21%; with AgETHR-A (1 μM peptide), -3%. Moreover, the “agonistic activity normalized by the activity of AgETH2” value in the test on AgETHR-B (0.1 μM peptide) was 0%; with AgETHR-B (1 μM peptide), -2%.

Broadly, the EC50 is the concentration needed to bring the measured effect to its halfway point.
